Experiment [1] deals with Z-138 cells. Description: Z-138 Proliferation Assay (Cell Titer Glo, 5 days). Type of experiment: cell-based. Conditions: Homo sapiens, 120 h. The text has this: Z-138 Proliferation Assay
Z-138 suspension cells were purchased from ATCC (American Type Culture Collection, Manassas, Va.). RPMI/Glutamax medium, penicillin-streptomycin, heat inactivated fetal bovine serum were purchased from Life Technologies, Grand Island, N.Y., USA. V-bottom polypropylene 384-well plates were purchased from Greiner Bio-One, Monroe, N.C., USA. Cell culture 384-well white opaque plates were purchased from Perkin Elmer, Waltham, Mass., USA. Cell-Titer Glo® was purchased from Promega Corporation, Madison, Wis., USA. SpectraMax M5 plate reader was purchased from Molecular Devices LLC, Sunnyvale, Calif., USA.
Z-138 suspension cells were maintained in growth medium (RPMI 1640 supplemented with 10% v/v heat inactivated fetal bovine serum and cultured at 37° C. under 5% CO2 Under assay conditions, cells were incubated in assay medium (RPMI 1640 supplemented with 10% v/v heat inactivated fetal bovine serum and 100 units/mL penicillin-streptomycin) at 37° C. under 5% CO2.
For the assessment of the effect of compounds on the proliferation of the Z-138 cell line, exponentially growing cells were plated in 384-well white opaque plates at a density of 10,000 cells/ml in a final volume of 50 μl of assay medium. A compound source plate was prepared by performing triplicate nine-point 3-fold serial dilutions in DMSO, beginning at 10 mM (final top concentration of compound in the assay was 20 μM and the DMSO was 0.2%). A 100 nL aliquot from the compound stock plate was added to its respective well in the cell plate. […] After addition of compounds, assay plates were incubated for 5 days at 37° C., 5% CO2, relative humidity>90%.
Cell viability was measured by quantitation of ATP present in the cell cultures, adding 35 μl of Cell Titer Glo® reagent to the cell plates. Luminescence was read in the SpectraMax M5 microplate reader. The concentration of compound inhibiting cell viability by 50% was determined using a 4-parametric fit of the normalized dose response curves.

Experiment [2] deals with T1, PRMT5/MEP50 (Homo sapiens, UniProt O14744).
T1 construct: Flag-PRMT5; 6His-MEP50
T1 sequence (O14744 with tags, fused parts or gaps): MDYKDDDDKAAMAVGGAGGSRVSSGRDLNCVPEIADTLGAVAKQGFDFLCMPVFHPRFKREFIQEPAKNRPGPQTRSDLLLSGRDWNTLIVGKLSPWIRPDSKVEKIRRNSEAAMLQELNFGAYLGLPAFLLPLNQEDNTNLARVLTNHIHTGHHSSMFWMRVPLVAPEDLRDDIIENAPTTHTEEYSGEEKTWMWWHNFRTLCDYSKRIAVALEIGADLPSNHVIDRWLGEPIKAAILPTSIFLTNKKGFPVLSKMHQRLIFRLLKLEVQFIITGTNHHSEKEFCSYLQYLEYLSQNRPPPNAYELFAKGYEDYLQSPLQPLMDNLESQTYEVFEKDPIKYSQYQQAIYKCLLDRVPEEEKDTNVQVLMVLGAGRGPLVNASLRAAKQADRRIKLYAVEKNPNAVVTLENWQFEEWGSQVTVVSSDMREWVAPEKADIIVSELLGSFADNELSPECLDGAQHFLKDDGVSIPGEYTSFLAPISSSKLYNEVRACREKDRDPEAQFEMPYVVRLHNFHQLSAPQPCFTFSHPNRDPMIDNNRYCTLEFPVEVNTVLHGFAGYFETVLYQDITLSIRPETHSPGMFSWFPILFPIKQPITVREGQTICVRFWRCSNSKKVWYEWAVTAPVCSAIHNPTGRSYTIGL
T1 sequence (Q9BQA1 with tags, fused parts or gaps partner): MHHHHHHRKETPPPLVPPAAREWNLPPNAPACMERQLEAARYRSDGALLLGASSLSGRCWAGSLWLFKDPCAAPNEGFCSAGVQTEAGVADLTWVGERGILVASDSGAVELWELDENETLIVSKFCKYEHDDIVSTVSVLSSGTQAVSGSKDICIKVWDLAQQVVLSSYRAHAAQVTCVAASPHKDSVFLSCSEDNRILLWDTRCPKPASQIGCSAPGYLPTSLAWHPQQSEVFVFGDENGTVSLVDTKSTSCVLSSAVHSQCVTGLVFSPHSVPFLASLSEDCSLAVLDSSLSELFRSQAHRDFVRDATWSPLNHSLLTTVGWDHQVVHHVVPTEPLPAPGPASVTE
The experiment can be described thus: PRMT5 Biochemical Assay (PRMT5/MEP50 enzyme assay on peptide substrate, 3H-SAM Flashplate). The method, boiled down: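 FLAG-PRMT5/His-MEP50 from Sf9 cells (4 nM) preincubated 30 min at 25 °C with compound in 20 mM Bicine pH 7.6, 1 mM TCEP, 1% DMSO. Reaction started with 75 nM 3H-SAM on 40 nM biotinylated H4 1-15 peptide, stopped with cold SAM. Bound 3H-peptide counted on streptavidin Flashplates, normalised to DMSO and 100 uM SAH controls.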

In experiment [1], `Cn1cnc2ccc(-c3cccc(OCC(O)CN4CCc5ccccc5C4)c3)cc21` (stereo not shown) [Compound 45, 1-(3,4-dihydroisoquinolin-2(1H)-yl)-3-(3-(1-methyl-1H-benzo[d]imidazol-6-yl)phenoxy)propan-2-ol] had an EC50 of 1000 to 10000 nM.

Consider `Cn1cnc2ccc(-c3ccnc(NCC(O)CN4CCc5ccccc5C4)c3)cc21` (stereo not shown) [Compound 118, 1-(3,4-Dihydroisoquinolin-2(1H)-yl)-3-((4-(1-methyl-1H-benzo[d]imidazol-6-yl)pyridin-2-yl)amino)propan-2-ol], for which the EC50 in experiment [1] lay within 1000 to 10000 nM.

With `Cn1cnc2ccc(-c3ccnc(NC[C@H](O)CN4CCc5ccccc5C4)c3)cc21` [Compound 275], in experiment [1], the EC50 lay in the range of 1000 to 10000 nM.

In turn, `OC(COc1cccc(-c2ccc3c(c2)OCO3)c1)CN1CCc2ccccc2C1` (stereo not shown) [Compound 59, 1-(3-(benzo[d][1,3]dioxol-5-yl)phenoxy)-3-(3,4-dihydroisoquinolin-2(1H)-yl)propan-2-ol] came in with an EC50 in experiment [1] of 10000 to 40000 nM. For the same compound, the IC50 in experiment [2] is 101 to 1000 nM.

In experiment [1], `Cn1cnc2ccc(-c3ccnc(NC[C@@H](O)CN4CCc5ccccc5C4)c3)cc21` [Compound 276] gave an EC50 of 1000 to 10000 nM.

In the case of `CN1CCN(c2ccc(-c3cccc(OCC(O)CN4CCc5ccccc5C4)c3)cn2)CC1` (stereo not shown) [Compound 149], the EC50 in experiment [1] lay within 1000 to 10000 nM. Besides, the IC50 in experiment [2] lay in the range of 101 to 1000 nM.

With `Cn1cnc2ccc(-c3cccc(OCC(O)CN4CCc5ccccc5C4)c3)nc21` (stereo not shown) [Compound 189, 1-(3,4-dihydroisoquinolin-2(1H)-yl)-3-(3-(3-methyl-3H-imidazo[4,5-b]pyridin-5-yl)phenoxy)propan-2-ol], the EC50 in experiment [1] lay within 101 to 1000 nM.

In turn, `Cn1cnc2ccc(-c3cccc(OC[C@H](O)CN4CCc5ccccc5C4)c3)cc21` [Compound 174] came in with an EC50 in experiment [1] of 1000 to 10000 nM.

Compound `COC(=O)c1cccc(-c2cccc(OCC(O)CN3CCc4ccccc4C3)c2)c1` (stereo not shown) [Compound 135] came in with an EC50 in experiment [1] of more than 20000 nM. In addition, the IC50 in experiment [2] is 101 to 1000 nM.

Take `Cn1cnc2ccc(-c3cccc(OC[C@@H](O)CN4CCc5ccccc5C4)c3)cc21` [Compound 173]: the EC50 in experiment [1] lay within 1000 to 10000 nM.

In experiment [1], `OC(COc1cccc(-c2ccc3nn[nH]c3c2)c1)CN1CCc2ccccc2C1` (stereo not shown) [Compound 84, 1-(3-(1H-benzo[d][1,2,3]triazol-6-yl)phenoxy)-3-(3,4-dihydroisoquinolin-2(1H)-yl)propan-2-ol] displayed an EC50 of 1000 to 10000 nM. Moreover, in experiment [2], the IC50 is 101 to 1000 nM.

As for `Cc1ncc2ccc(-c3cccc(OCC(O)CN4CCc5ccccc5C4)c3)cn12` (stereo not shown) [Compound 266, 1-(3,4-dihydroisoquinolin-2(1H)-yl)-3-(3-(3-methylimidazo[1,5-a]pyridin-6-yl)phenoxy)propan-2-ol], in experiment [1], the EC50 is 1000 to 10000 nM.

Regarding `OC(COc1ccc(-n2cncn2)cc1)CN1CCc2ccccc2C1` (stereo not shown) [Compound 9], the IC50 in experiment [2] was in the range of 1000 to 10000 nM.

Take `O=C(Nc1cccc(OCC(O)CN2CCc3ccccc3C2)c1)c1cncnc1` (stereo not shown) [Compound 161]: the IC50 in experiment [2] was 1000 to 10000 nM.

For `OC(COc1cccc(-c2csc3ccccc23)c1)CN1CCc2ccccc2C1` (stereo not shown) [Compound 170], in experiment [2], the IC50 fell in the range of 101 to 1000 nM.

Turning to `OC(CCc1cccc(CNC2CCCC2)c1)CN1CCc2ccccc2C1` (stereo not shown) [Compound 36], in experiment [2], the IC50 fell in the range of 10000 to 40000 nM.

Consider `CNC(=O)Cn1cnc2ccc(-c3cccc(OCC(O)CN4CCc5ccccc5C4)c3)cc21` (stereo not shown) [Compound 262], for which the EC50 in experiment [1] was 1000 to 10000 nM. Moreover, the IC50 in experiment [2] is 101 to 1000 nM.

For `CS(=O)(=O)c1ccccc1-c1cccc(OCC(O)CN2CCc3ccccc3C2)c1` (stereo not shown) [Compound 131], the IC50 in experiment [2] was 101 to 1000 nM.

On to `Cc1cccc2c1CN(CC(O)COc1cccc(-c3ccc4ncn(C)c4c3)c1)CC2` (stereo not shown) [Compound 192], for which the half-inhibitory concentration (IC50) in experiment [2] lay within 1000 to 10000 nM.

As to `COc1cccc2c1CN(CC(O)COc1cccc(CNC3CCCC3)c1)CC2` (stereo not shown) [Compound 29], the IC50 in experiment [2] was 10000 to 40000 nM.

Regarding `OC(COc1cccc(-c2ccc3ncn(C4CNC4)c3c2)c1)CN1CCc2ccccc2C1` (stereo not shown) [Compound 208, 1-(3-(1-(azetidin-3-yl)-1H-benzo[d]imidazol-6-yl)phenoxy)-3-(3,4-dihydroisoquinolin-2(1H)-yl)propan-2-ol], the EC50 in experiment [1] fell in the range of 1000 to 10000 nM. In addition, the IC50 in experiment [2] fell in the range of 101 to 1000 nM.

For the compound `OC(COc1cccc(-c2ccccn2)c1)CN1CCc2ccccc2C1` (stereo not shown) [Compound 98], in experiment [2], the IC50 was 1000 to 10000 nM.

With `CS(=O)(=O)c1cccc(-c2cccc(OCC(O)CN3CCc4ccccc4C3)c2)c1` (stereo not shown) [Compound 130], in experiment [2], the IC50 is 101 to 1000 nM.

In the case of `N#CCc1cccc(-c2cccc(OCC(O)CN3CCc4ccccc4C3)c2)c1` (stereo not shown) [Compound 111], the IC50 in experiment [2] is 101 to 1000 nM.

For `OC(COc1cccc(-c2cc(Cl)cc(C(F)(F)F)c2)c1)CN1CCc2ccccc2C1` (stereo not shown) [Compound 128], the IC50 in experiment [2] fell in the range of 1000 to 10000 nM.

`Cn1cnc2ccc(-c3nccc(NCC(O)CN4CCc5ccccc5C4)n3)cc21` (stereo not shown) [Compound 120, 1-(3,4-dihydroisoquinolin-2(1H)-yl)-3-((2-(1-methyl-1H-benzo[d]imidazol-6-yl)pyrimidin-4-yl)amino)propan-2-ol]: in experiment [2], the IC50 fell in the range of 1000 to 10000 nM.

For `O=C(Nc1cccc(OCC(O)CN2CCc3ccccc3C2)c1)c1ccnnc1` (stereo not shown) [Compound 184], the IC50 in experiment [2] lay within 1000 to 10000 nM.

As to `CC(C)(C)OC(=O)N1CC(OCC(O)CN2CCc3ccccc3C2)C1` (stereo not shown) [Compound 290], the IC50 in experiment [2] was in the range of 1000 to 10000 nM.

On to `CN1CCN(C(=O)Cn2ccc3cnc(-c4cccc(OCC(O)CN5CCc6ccccc6C5)c4)nc32)CC1` (stereo not shown) [Compound 244], for which the IC50 in experiment [2] lay in the range of 101 to 1000 nM.

`COC(=O)c1cncc(-c2cccc(OCC(O)CN3CCc4ccccc4C3)c2)c1` (stereo not shown) [Compound 180] showed an EC50 in experiment [1] of more than 20000 nM. The IC50 in experiment [2] fell in the range of 1000 to 10000 nM.

Take `OC(COc1cccc(-c2ccncc2F)c1)CN1CCc2ccccc2C1` (stereo not shown) [Compound 190]: the IC50 in experiment [2] lay in the range of 1000 to 10000 nM.

`NC(=O)c1ccc(-c2cccc(OCC(O)CN3CCc4ccccc4C3)c2)cc1` (stereo not shown) [Compound 152]: the IC50 in experiment [2] fell in the range of 101 to 1000 nM.

Regarding `OC(COc1cccc(-c2ccccc2C(F)(F)F)c1)CN1CCc2ccccc2C1` (stereo not shown) [Compound 132], the IC50 in experiment [2] was 101 to 1000 nM.

In the case of `O=C(Cn1cnc2ccc(-c3cccc(OCC(O)CN4CCc5ccccc5C4)c3)cc21)N1CCOCC1` (stereo not shown) [Compound 264], the EC50 in experiment [1] is 1000 to 10000 nM. Further, the IC50 in experiment [2] was 101 to 1000 nM.

For `O=S1(=O)CCN(c2ccc(OCC(O)CN3CCc4ccccc4C3)cc2)CC1` (stereo not shown) [Compound 18], the IC50 in experiment [2] was 1000 to 10000 nM.

As for `OC(COc1cccc(-c2ccc3cnoc3c2)c1)CN1CCc2ccccc2C1` (stereo not shown) [Compound 166], the IC50 in experiment [2] lay in the range of 1000 to 10000 nM.

In the case of `O=C(c1cccc(-c2cccc(OCC(O)CN3CCc4ccccc4C3)c2)c1)N1CCOCC1` (stereo not shown) [Compound 126, (3′-(3-(3,4-dihydroisoquinolin-2(1H)-yl)-2-hydroxypropoxy)-[1,1′-biphenyl]-3-yl)(morpholino)methanone], in experiment [2], the half-inhibitory concentration (IC50) lay in the range of 101 to 1000 nM.

On to `O=C(Cn1cnc2ccc(-c3cccc(OCC(O)CN4CCc5ccccc5C4)c3)cc21)N1CCCCC1` (stereo not shown) [Compound 249], for which the IC50 in experiment [2] is 101 to 1000 nM.

These data come from patent publication US20180298010A1, “PRMT5 INHIBITORS AND USES THEREOF” (Epizyme, Inc., priority 2012, published 2018).
